We go through one compound from patent US20220387544A1, “NOVEL THERAPEUTIC USE” (Artios Pharma Limited, priority 2019, published 2022).

Assay type in all cases: cell-based
For assay [1], the system named is parental and C20orf196 KO SUM149 tumouroids. Description: Tumouroid assay, parental vs C20orf196 KO SUM149. The settings on record: in C20orf196 KO cells when compared with olaparib. The procedure: Cells were seeded into a hydrogel containing 10% rat tail collagen (OcellO) in 384-well high content imaging microplates at varying densities to compensate for differential growth characteristics (Table 2).
24 hours after seeding, test compounds and olaparib (Selleckchem) were added in an eight-point dose range with a one in three serial dilution (maximum concentration 12 μM for all compounds, except 30 μM compound A for REV7 KO cell experiments). Dimethyl sulfoxide (DMSO) and 1 μM staurosporine (Med Chem Express) treatments were included as negative and positive controls, respectively. All treatments were carried out in quadruplicate.
After seven or fourteen days of treatment for 20orf196 KO and REV7 KO experiments respectively, cells were fixed with 5× Fix & Stain solution (OcellO) for 16 hours at 4° C. to stain both the nuclei using Hoechst 33258 and the actin cytoskeleton using Rhodamine-Phalloidin. Cells were washed four times with phosphate-buffered saline (PBS), and plates were imaged and analysed using OcellO's three-dimensional image analysis software (Ominer). For each well, two channels of 16-bit image stacks were collected using an automated microscope system: Molecular Devices ImageXpress Micro XLS, equipped with a 4× magnification/0.2NA PlanApo objective. For each image slice (n=47), pixel size was 0.324 μm and step size in z-direction was 50 μm.
Parental or C20orf196 KO SUM149 cells were seeded into a collagen-containing hydrogel in 384-well plates and incubated overnight. The resulting tumouroids were treated with a serial dilution of Polθ inhibitor or olaparib for seven days, fixed, and stained to visualise DNA and F-actin. Plates were imaged, and tumouroid size was measured using OcellO's three-dimensional image analysis software.
Parental or C20orf196 KO SUM149 cells were seeded into a collagen-containing hydrogel in 384-well plates and incubated overnight. The resulting tumouroids were treated with a serial dilution of Polθ inhibitor or olaparib for seven days, fixed, and stained to visualise DNA and F-actin. Plates were imaged, and the number of nuclei per tumouroid was counted using OcellO's three-dimensional image analysis software.
Parental or C20orf196 KO SUM149 cells were seeded into a collagen-containing hydrogel in 384-well plates and incubated overnight. The resulting tumouroids were treated with Polθ inhibitor, olaparib or control compound (at the concentrations indicated) for seven days, fixed, and stained to visualise DNA and F-actin. Plates were imaged, and the fraction of nuclei without an associated actin cytoskeleton was calculated using OcellO's three-dimensional image analysis software.

Assay [2] relates to Parental and REV7 KO SUM149 cells. Description: Clonogenic survival assay (ICR), SUM149 REV7 KO clones. Conditions: REV7 KO clones vs parental SUM149, 14 days. How it is done: Clonogenic survival assays were performed as previously described (Edwards et al Nature (2008) 451, 1111-1115; Farmer et al Nature (2005) 434, 917-921). For measurement of sensitivity to Compound A inhibitor, exponentially growing cells were seeded in six-well plates at a concentration of 1000-2000 cells per well. For Compound A, cells were continuously exposed to the drug with media and drug replaced every 72 h. After 14 days, cells were fixed and stained with sulphorhodamine-B (Sigma) and colonies were counted. SFs were calculated and drug sensitivity curves plotted as previously described (Farmer et al Nature (2005) 434, 917-921).
Parental or REV7 KO SUM149 cells were seeded into 6 well plates and incubated overnight. The cells were then treated with a serial dilution of Polθ inhibitor or olaparib for 14 days, fixed, and stained with sulphorhodamine B. The colonies in each well were counted and normalised survival data plotted to generate a dose-response curve.

Assay [3] has as its system parental and SHLD2 KO MDA-MB-436 cells. Description: Colony formation assay, MDA-MB-436. The settings on record: SHLD2 KO vs parental MDA-MB-436 cells, colony solubilization protocol. How it is done:
1 mL of cells were seeded per well in a 24-well plate in triplicate and incubated overnight at 37° C. Cells were treated with a seven-point dose response curve with a one-in-three serial dilution of compound for the timepoints listed in Table 5. For MDA-MB-436 cells media was replenished every five days.
Cells were fixed with 70% ethanol for 20 minutes at room temperature with shaking. Cells were then stained with 0.04% Crystal Violet (Sigma Aldrich) for 20 minutes at room temperature with shaking. Cells were washed 6 times with water and air-dried overnight.
Plates were imaged using a Gelcount (Oxford Optronix), and colonies were counted using parameters optimized for each cell line. […] Colonies were solubilized using 10% acetic acid (VWR) for 30 minutes, absorbance at 595 nm was read using the Clariostar plate reader (BMG Labtech), and blank correction was applied. Relative Survival was calculated by normalization of compound treated wells to DMSO treated wells.
The effect of a DNA polymerase theta (Polθ) inhibitor (Compound A) and the PARP inhibitor olaparib on the survival of parental and SHLD2 deleted (SHLD2 KO) MDA-MB-436 cells was investigated by colony formation assay. Briefly, each population was seeded at low density, incubated with different concentrations of the compound and the relative survival normalized to untreated cells was measured with the colony solubilization protocol.

The subject of assay [4] is Shieldin-defective, PARPi-resistant SUM149 cells. Description: Re-sensitisation to olaparib. The procedure:
For measurement of re-sensitisation to Olaparib, exponentially growing cells were exposed to Compound A for 48 hours. After, cells were seeded in 96-well plates at a concentration of 1000-2000 cells per well. 24 hours post-seeding, Olaparib treatment was initiated and cells were continuously exposed to the drug with media and drug replenished every 72 hours. After 10 days, cell viability was estimated using Cell-Titre Glo (Promega). SFs were calculated and drug sensitivity curves plotted as previously described (Farmer et al Nature (2005) 434, 917-921).
Briefly, parental SUM149 cells or derivatives with either BRCA1 restored or with genetic deletion of either C20orf196 or 53BP1 were treated with Compound A in a tissue culture flask for 48 hours. The cells were then washed before seeding at low density in 96 well plates. 24 hours post seeding, cells were incubated with either olaparib or DMSO for a further 10 days. The relative survival normalised to untreated cells was measured using Cell-Titre Glo.

Consider `Cc1cccc(N(C)C(=O)[C@@H]2[C@H](O)CCN2c2nc(C)cc(C(F)(F)F)c2C#N)c1` [Compound A, (2S,3R)-1-(3-cyano-6-methyl-4-(trifluoromethyl)pyridin-2-yl)-3-hydroxy-N-methyl-N-(m-tolyl)pyrrolidine-2-carboxamide], for which, in assay [1], the cell death entry is listed as “significantly more cell death”, the “reduction in the number of nuclei per tumoroid” value is given as “greater reduction in the number of nuclei per tumoroid” and the “reduction in tumoroid size” value was “greater reduction in tumoroid size”. The “sensitivity by reduction in number of colonies” value in assay [2] is on record as “increased sensitivity”. For the same compound, the “sensitivity by relative survival” value in assay [3] is given as “significantly more sensitive”. Further, the “sensitivity to olaparib after pre-treatment” value in assay [4] (Compound A 10 μM 48 hours then olaparib 1 μM 10 days, SUM149 C20orf196 and SUM149 53BP1 cells) is given as “induced sensitivity”. Moreover, the “effect on survival of 48 hours treatment alone” value in assay [4] (Compound A 10 μM for 48 hours then DMSO, SUM149 cells and derivatives) was “no effect on survival”.
